According to PMC6723591, “Anti-Inflammatory Cembrane-Type Diterpenoids and Prostaglandins from Soft Coral Lobophytum sarcophytoides” (Marine Drugs, 2019):

Tested on: LPS-activated NO production in RAW264.7 cells
Assay: Inhibition of LPS-activated NO production in RAW264.7 cells (Griess assay)
Assay type: cell-based
Conditions: Mus musculus, LPS-activated RAW264.7 cells
Experimental: All isolated compounds (except for 14 with limited amount) were tested for their inhibition activity against LPS-activated NO production in RAW264.7 cells using the Griess assay. […] The structure of PGA2 made a more positive contribution to the anti-inflammatory activity than those of PGB2 (16 vs. 15).
The anti-inflammation activity of the isolated compounds was evaluated according to the reported procedures.

IC50	SMILES
26.7 µM	CC1=CC2OCC(C)=C2CCC2(C)OC2CCC(C)(O)C=CC1 (stereo not drawn) [Compound 6]
17.6 µM	C=C1CC[C@@H](C(C)C)/C=C/[C@@](C)(O)C/C=C/[C@](C)(O)CC[C@@H]1O [Compound 7, (1S,2E,4S,6E,8S,11R)-2,6,12(20)-cembratriene-4,8,11-triol]
32.1 µM	CC(=O)C=C=C1C(C)(C)C[C@H](OC(C)=O)C[C@@]1(C)O [Compound 9, apo-9′-fucoxanthinone]
20.4 µM	CCCCCC(O)C=CC1=C(CC=CCCCC(=O)O)C(=O)CC1 (stereo not drawn) [Compound 10, (5E)-PGB2]
24.8 µM	CCCCCC(O)CCC1=C(CC=CCCCC(=O)O)C(=O)CC1 (stereo not drawn) [Compound 12, 13,14-dihydro-PGB2]
16.1 µM	CCCCCC(O)CCC1=C(CC=CCCCC(=O)OC)C(=O)CC1 (stereo not drawn) [Compound 13, 13,14-dihydro-PGB2-Me]
15.9 µM	CCCCC[C@H](O)/C=C/C1=C(C/C=C\CCCC(=O)O)C(=O)CC1 [Compound 15, PGB2]
7.1 µM	CCCCC[C@H](O)/C=C/[C@H]1C=CC(=O)[C@@H]1C/C=C\CCCC(=O)O [Compound 16, PGA2]
39.8 µM	COc1ccc2c(c1)c(CC(=O)O)c(C)n2C(=O)c1ccc(Cl)cc1 [indomethacin, reference compound]
